In patent US20060100168A1, “Method of treating cancer using adenosine and its analogs” (The Trustee of Boston University, priority 2002, published 2006):
Entries after “also recorded” stand apart in the source; their conditions may differ.

Assays:
Format in all cases: cell-based, human
MCF-7 cells [1] = test: Apoptosis by propidium iodide staining and flow cytometry (sub-diploid events); details: 100 μM
Description: Flow Cytometry and Apoptosis Analysis: Cells were detached from tissue culture plates by trypsin treatment. Cells were collected by centrifugation at 1200 g for 5 minutes and washed once with PBS. Staining of cells with propidium iodide and analysis on a flow cytometer (FACScan, Becton Dickinson, Research Triangle Park, N.C.) was performed as described before (42). Data were analyzed with CellQuest software (Becton Dickinson, Research Triangle Park, N.C.). The percentage of cells appearing with a ploidy level smaller than a diploid content was calculated as an estimate of cells undergoing apoptosis.

MCF-7 cells [2] = test: Thymidine incorporation assay; details: treated 24 hours before thymidine
Description: Thymidine Incorporation Assay. Thymidine incorporation assays were performed as described (Zhang, Y., Wang, Z., and Ravid, K. The cell cycle in polyploid megakaryocytes is associated with reduced activity of cyclin B1-dependent cdc2 kinase. J Biol Chem, 271: 4266-4272, 1996) with modifications. Rat bone marrow cells were cultured in 25 cm^2 flasks at a concentration of 20×10^6 cells per 2 ml. After drug treatment for 24 hours, cells were incubated with ^3H-thymidine at a final concentration of 3 μCi/ml for 8 hours. For MCF-7 cells, cells were cultured in 6-well plates and incubated with ^3H-thymidine for 2 hours after drug treatment. Cells were divided into two portions, sixty percent of which were processed as described (Id.) to obtain tritium counts. The rest of the cells were lysed with Western blotting lysis buffer and protein concentrations were determined by Bio-Rad protein assay reagent (Bio-Rad, Hercules, Calif.). Tritium counts were normalized with corresponding protein concentrations to account for cell number variations.

[3] = tested on: estrogen receptor β (ERβ) mRNA; test: Semi-quantitative RT-PCR of ERβ mRNA in MCF-7 cells; details: 100 μM
Description: (§1) Total RNA preparation and Reverse Transcription Polymerase Chain Reaction (RT-PCR): Total RNA from MCF-7 cells was prepared with Trizol (Invitrogen, Carlsbad, Calif.) as described before (41). For reverse transcription, 2 μg of RNA were used in a […] with random primers and M-MLV reverse transcriptase (Invitrogen, Carlsbad, Calif.), following the manufacturer's protocol. To control for possible contamination from genomic DNA in subsequent PCR reactions, control reverse transcription reactions were carried out under identical conditions, only without reverse transcriptase. After reverse transcription, 5% of the product was used in each PCR reaction. For the experiments analyzing A3 adenosine receptor (A3AR) expression, 27 cycles were used in the PCR reactions. Specific primers were designed for human A3AR, which match to two separate exons, according to genomic sequences (from GenBank). Sequences for the sense and antisense A3AR primers are: 5′tccatcatgtccttgctg3′ (SEQ ID NO: 1) and 5′gcacatgacaaccaggg3′ (SEQ ID NO.: 2). In the experiments analyzing estrogen receptor a (ERα) mRNA, semi-quantitative PCR reactions were carried out with 23 cycles for ERα primers and 19 cycles for GAPDH primers (used as a control). The cycle numbers were tested in previous experiments not to produce saturation effects. […]

[4] = tested on: ERE promoter activity (transcriptional activity of endogenous ERα); test: Reporter gene assay pERE-Tk-Luc in MCF-7 cells; details: MCF-7 transfected with pERE-Tk-Luc; 12 hours
Description: Transfections and Reporter Gene Assay: Transient transfection was performed using FuGene6 (Roche, Indianapolis, Ind.) transfection reagent according to manufacturer's protocol. Circular reporter plasmid pERE-Tk-Luc at 10 μg and 10 μg of pCMV-β-Gal (as a measure of efficiency of trasnfection) were transfected with 50 μl of FuGene6. Cells were split into 6 well plates 12 hours after transfection, and incubated overnight in fresh medium. […] Luciferase and β-galactosidase activities were measured as described before (43, 44).

Akt (Ser 473) = test: Akt phosphorylation in MCF-7 cells; details: not shown
[5] = tested on: estrogen receptor α (ERα); test: ERα protein level by Western blot in MCF-7 cells
Description: Western Blot Analysis: Cells were washed three times in cold 1×PBS, and collected by scraping on ice. Western blot analysis was performed as we described before with the chemiluminescence method (41). […] Cyclin A, cyclin B1 and p27 antibodies were used at 1:500 dilutions. Cyclin E antibody was used at 1:1000 dilutions.

[6] = tested on: estrogen receptor α (ERα) mRNA; test: Semi-quantitative RT-PCR of ERα mRNA in MCF-7 cells; details: 100 μM
Description: as §1

[7] = tested on: ERα protein in ZR-75 cells; test: ERα protein level in ZR-75 cells; details: not shown
Description: Western Blot Analysis: Cells were washed three times in cold 1×PBS, and collected by scraping on ice. Western blot analysis was performed as we described before with the chemiluminescence method (41). Antibodies used in this study were: ERα (NeoMarkers, Ab-15), Cyclin A (Santa Cruz Biotech, H-432), Cyclin B1 (Santa Cruz Biotech, H-433), Cyclin E (Upstate Biotech, HE-12), p27 (Santa Cruz Biotech, F-8). ERα antibody was used at 1:100 dilutions. Cyclin A, cyclin B1 and p27 antibodies were used at 1:500 dilutions. Cyclin E antibody was used at 1:1000 dilutions.

pS2 mRNA = test: Semi-quantitative RT-PCR of pS2 mRNA in MCF-7 cells; details: 100 μM, observed after 8 to 12 hours
Description: as §1

T47D cells = test: Anchorage-dependent growth assay; details: 100 μM, three days

CNC(=O)[C@H]1O[C@@H](n2cnc3c(NCc4cccc(I)c4)ncnc32)[C@H](O)[C@@H]1O [IB-MECA, N^6-(3-iodobenzyl)adenosine-5′-N-methyluronamide]
Apoptosis, in words (MCF-7 cells [1]; two days): non significant change | Apoptosis (MCF-7 cells [1]; 2 days of treatment, except adenosine (500 μM) and inosine (1 mM), number of apoptotic cells compared to vehicle control (set to 1), average ± SD): 1.12 ± 0.02 | Thymidine incorporation decreased to (MCF-7 cells [2]): 28% | Estrogen receptor β message level [3]: not significantly reduced | Drop of ERE promoter activity [4]: more than 5 fold | Akt phosphorylation (at Ser 473) (Akt (Ser 473)): induced Akt phosphorylation | ERα Level ([5]; 12 hours, 100 μM, except adenosine (500 μM), Western blot quantitated, vehicle control set to 1, average of two experiments): 0.23 | ERα protein level, in words ([5]; Western blot): decreased | ERα protein degradation ([5]; protein synthesis inhibited by cycloheximide 50 μg/ml, 100 μM): did not notice any significant change in ERα protein degradation | Time of first sign of decrease of ERα mRNA [6]: 4 h | ERα mRNA level, in words ([6]; 4 to 24 hours, compared to GAPDH): strongly downregulated; also recorded: dramatic decrease | ERα protein levels, in words [7]: Reduction of ERα protein levels | pS2 mRNA level (pS2 mRNA): reduced | Cell counts after treatment compared to day 0, in words (T47D cells): affected more severely
